Data from patent EP4678638A1, “NEW E3 UBIQUITIN LIGASE LIGAND, PROTEIN DEGRADATION AGENT AND USE THEREOF” (priority 2023, dated 2024).
Where two headings read alike, the source gives them in different places.

Tests used:
SW620 = test: CCK-8 proliferation, SW620; type: cell-based; conditions: Homo sapiens, read-out: Inhibitory activity (IC50) on tumor cell proliferation, SW620
How it was run: (§1)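 Cells seeded, then after 24 h treated with 10 concentrations (top 10 µM, 5-fold serial dilution) for a line-specific time at 37°C, 5% CO2. Viability read by CCK-8; IC50 fitted from growth-inhibition curves.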

TMD8 = test: CCK-8 proliferation, TMD8; type: cell-based; conditions: Homo sapiens, read-out: Inhibitory activity (IC50) on tumor cell proliferation, TMD8
Procedure: (§2) The tumor cells used herein were cultured in a cell culture medium listed in table A1 at 37°C in an incubator with 5% CO2. Prior to experimentation, all cell lines used were correctly identified by STR profiling, and tested negative for mycoplasma contamination using a mycoplasma detection kit through routine screenings. Table A1. Tumor cells and cell culture medium used in the present disclosure
(§3) IC50 values of the compounds of the present disclosure (including the compounds in Table 1, and compounds of examples) were measured using the Meilun Cell Counting Kit-8 kit from Dalian Meilun Biotech Co., Ltd. Assay details are as follows: tumor cells were seeded in a 96-well plate at a density listed in Table A2. After 24h, 100 µL of the inoculated cells were treated with 0.5µL of the compounds of the present disclosure (including the compounds in Tables 1 and 2, and compounds of examples) at 10 different successively decreasing concentrations (starting at the highest concentration of 10µM; 5-fold serial dilutions). After the cells were treated with the compounds of the present disclosure for a period of time, the cell viability detection reagent was added to the culture medium for cell viability assessment according to the instructions provided with the CCK-8 kit. […] The growth inhibition of the compounds of the present disclosure on cells was plotted by Prism Graphpad software, and the IC50 values of the compounds of the present disclosure were calculated therefrom. […] Seeding protocol and treatment time for tumor cells

THP-1 = test: CCK-8 proliferation, THP-1; type: cell-based; conditions: Homo sapiens, 72 hours, read-out: Inhibitory activity (IC50) on tumor cell proliferation, THP-1
Procedure: as §2, §3

CCRF-CEM = test: CCK-8 proliferation, CCRF-CEM; type: cell-based, Human; conditions: Homo sapiens, CCRF-CEM; CCK-8; 96 hours; read-out: Inhibitory activity (IC50) on tumor cell proliferation, CCRF-CEM
How it was run: as §1

Jurkat = test: CCK-8 proliferation, Jurkat; type: cell-based, Human; conditions: Homo sapiens, Jurkat; CCK-8; 96 hours; read-out: Inhibitory activity (IC50) on tumor cell proliferation, Jurkat
How it was run: as §1

LNcap = test: CCK-8 proliferation, LNcap; type: cell-based; conditions: Homo sapiens, LNCaP; CCK-8; 96 hours; read-out: Inhibitory activity (IC50) on tumor cell proliferation, Lncap
How it was run: as §1

LS174T = test: CCK-8 proliferation, LS174T; type: cell-based; conditions: Homo sapiens, read-out: Inhibitory activity (IC50) on tumor cell proliferation, LS174T
Procedure: IC50 values of the compounds of the present disclosure (including the compounds in Table 1, and compounds of examples) were measured using the Meilun Cell Counting Kit-8 kit from Dalian Meilun Biotech Co., Ltd. Assay details are as follows: tumor cells were seeded in a 96-well plate at a density listed in Table A2. After 24h, 100 µL of the inoculated cells were treated with 0.5µL of the compounds of the present disclosure (including the compounds in Tables 1 and 2, and compounds of examples) at 10 different successively decreasing concentrations (starting at the highest concentration of 10µM; 5-fold serial dilutions). After the cells were treated with the compounds of the present disclosure for a period of time, the cell viability detection reagent was added to the culture medium for cell viability assessment according to the instructions provided with the CCK-8 kit. […] The growth inhibition of the compounds of the present disclosure on cells was plotted by Prism Graphpad software, and the IC50 values of the compounds of the present disclosure were calculated therefrom. [drawing 1519] Table A2. Seeding protocol and treatment time for tumor cells

SU-DHL-6 = test: CCK-8 proliferation, SU-DHL-6; type: cell-based; conditions: Homo sapiens, read-out: Inhibitory activity (IC50) on tumor cell proliferation, SU-DHL-6
Procedure: as §2, §3

[1] = target: T1, human Cereblon WT GST-tagged protein (Homo sapiens, UniProt Q96SW2); test: CRBN binding, HTRF (CEREBLON BINDING kit); conditions: for inhibition at 0.5 µM: read-out: Inhibition rate (%) at 0.5µM; for inhibition at 2 µM: read-out: Inhibition rate (%) at 2 µM
T1 construct: purchased CISBIO 64BDCRBNPEH
T1 sequence (Q96SW2 whole entry): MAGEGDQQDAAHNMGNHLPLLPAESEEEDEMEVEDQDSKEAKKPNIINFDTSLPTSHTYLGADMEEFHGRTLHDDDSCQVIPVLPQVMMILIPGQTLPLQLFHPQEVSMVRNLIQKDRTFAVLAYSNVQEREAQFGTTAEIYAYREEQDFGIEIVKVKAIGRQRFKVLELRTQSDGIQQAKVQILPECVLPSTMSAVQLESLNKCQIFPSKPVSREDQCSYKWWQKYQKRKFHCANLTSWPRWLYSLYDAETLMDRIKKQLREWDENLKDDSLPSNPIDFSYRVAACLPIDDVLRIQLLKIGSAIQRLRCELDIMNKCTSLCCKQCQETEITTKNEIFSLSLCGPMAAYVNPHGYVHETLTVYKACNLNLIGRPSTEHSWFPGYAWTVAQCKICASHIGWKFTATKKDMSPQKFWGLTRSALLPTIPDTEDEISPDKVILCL
How it was run: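 After 3 h at room temperature, emission at 665 and 620 nm was measured in a homogeneous time-resolved fluorescence format. Compounds competed with a Thalidomide-Re probe for GST-tagged wild-type human CRBN, which was labelled with a Eu anti-GST antibody.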

H2228 = test: CCK-8 proliferation, NCI-H2228 (H2228); type: cell-based; conditions: Homo sapiens, NCI-H2228, 96 h, read-out: Inhibitory activity (IC50) on tumor cell proliferation, H2228
How it was run: as §1

PC-9 = test: CCK-8 proliferation, PC-9; type: cell-based, Human; conditions: Homo sapiens, PC-9, 96 h, read-out: Inhibitory activity (IC50) on tumor cell proliferation, PC-9
How it was run: as §1

H1975 = test: CCK-8 proliferation, NCI-H1975 (H1975); type: cell-based, Human; conditions: Homo sapiens, NCI-H1975, 96 h, read-out: Inhibitory activity (IC50) on tumor cell proliferation, H1975
How it was run: as §1

MM.1R = test: CCK-8 proliferation, MM.1R; type: cell-based; conditions: 72 h, read-out: Inhibitory activity (IC50) on tumor cell proliferation, MM.1R
How it was run: as §1

Row | IC50 (SW620; SW-620, CCK-8, 96 hours) [nM] | IC50 (THP-1) [nM] | IC50 (CCRF-CEM) [nM] | IC50 (Jurkat) [nM] | IC50 (LNcap) [nM] | SMILES | IC50 (TMD8; TMD8, CCK-8, 72 hours) [nM] | IC50 (LS174T) [nM] | IC50 (SU-DHL-6; SU-DHL-6, CCK-8, 72 hours) [nM] | also measured
1 | 1 to 10 | 10 to 50 | 1 to 10 | 1 to 10 | 50 to 100 | CC1(C)CCC(c2ccc(Cl)cc2)=C(CN2CCN(c3ccc(C(=O)NS(=O)(=O)c4ccc(N[C@H](CCN5CCN(Cc6ccc(C7CCC(=O)NC7=O)c(F)c6)CC5)CSc5ccccc5)c(S(=O)(=O)C(F)(F)F)c4)cc3)CC2)C1 (stereo partly drawn) [GT-04152, 4-(4-((4'-chloro-4,4-dimethyl-3,4,5,6-tetrahydro-[1,1'-biphenyl]-2-yl)methyl)piperazin-1-yl)-N-((4-(((2R)-4-(4-(4-(2,6-dioxopiperidin-3-yl)-3-fluorobenzyl)piperazin-1-yl)-1-(phenylthio)butan-2-yl)amino)-3-((trifluoromethyl)sulfonyl)phenyl)sulfonyl)benzamide] | 1 to 10 | 50 to 100 |  | 
2 | 100 to 500 | 10 to 50 | 1 to 10 | 10 to 50 | 100 to 500 | CC1(C)CCC(c2ccc(Cl)cc2)=C(CN2CCN(c3ccc(C(=O)NS(=O)(=O)c4ccc(N[C@H](CCN5CCN(Cc6cccc(N7CCC(=O)NC7=O)c6)CC5)CSc5ccccc5)c(S(=O)(=O)C(F)(F)F)c4)cc3)CC2)C1 [GT-04278, (R)-4-(4-((4'-chloro-4,4-dimethyl-3,4,5,6-tetrahydro-[1,1'-biphenyl]-2-yl)methyl)piperazin-1-yl)-N-((4-((4-(4-(3-(2,4-dioxotetrahydropyrimidin-1(2H)-yl)benzyl)piperazin-1-yl)-1-(phenylthio)butan-2-yl)amino)-3-((trifluoromethyl)sulfonyl)phenyl)sulfonyl)benzamide] | 10 to 50 | 500 to 1000 |  | 
3 | 10 to 50 | 1 to 10 | < 1 | 1 to 10 | 10 to 50 | CC1(C)CCC(c2ccc(Cl)cc2)=C(CN2CCN(c3ccc(C(=O)NS(=O)(=O)c4ccc(N[C@H](CCN5CCN(Cc6ccc(C7CCC(=O)NC7=O)cc6)CC5)CSc5ccccc5)c(S(=O)(=O)C(F)(F)F)c4)cc3)CC2)C1 (stereo partly drawn) [GT-04151, 4-(4-((4'-chloro-4,4-dimethyl-3,4,5,6-tetrahydro-[1,1'-biphenyl]-2-yl)methyl)piperazin-1-yl)-N-((4-(((2R)-4-(4-(4-(2,6-dioxopiperidin-3-yl)benzyl)piperazin-1-yl)-1-(phenylthio)butan-2-yl)amino)-3-((trifluoromethyl)sulfonyl)phenyl)sulfonyl)benzamide] | 1 to 10 | 50 to 100 |  | 
4 | 50 to 100 | 10 to 50 | 1 to 10 | 10 to 50 | 50 to 100 | CC1(C)CCC(c2ccc(Cl)cc2)=C(CN2CCN(c3ccc(C(=O)NS(=O)(=O)c4ccc(N[C@H](CCN5CCN(Cc6cccc(NC7CCC(=O)NC7=O)c6)CC5)CSc5ccccc5)c(S(=O)(=O)C(F)(F)F)c4)cc3)CC2)C1 (stereo partly drawn) [GT-04279, 4-(4-((4'-chloro-4,4-dimethyl-3,4,5,6-tetrahydro-[1,1'-biphenyl]-2-yl)methyl)piperazin-1-yl)-N-((4-(((2R)-4-(4-(3-((2,6-dioxopiperidin-3-yl)amino)benzyl)piperazin-1-yl)-1-(phenylthio)butan-2-yl)amino)-3-((trifluoromethyl)sulfonyl)phenyl)sulfonyl)benzamide] | 10 to 50 | 100 to 500 |  | 

More lines, now with the values behind:

Row | SMILES | IC50 (SW620; SW-620, CCK-8, 96 hours) [nM] | IC50 (THP-1) [nM] | IC50 (CCRF-CEM) [nM] | IC50 (Jurkat) [nM] | IC50 (LNcap) [nM] | IC50 (TMD8; TMD8, CCK-8, 72 hours) [nM] | IC50 (LS174T) [nM] | IC50 (SU-DHL-6; SU-DHL-6, CCK-8, 72 hours) [nM] | also measured
5 | Nc1ncnc2c1c(-c1ccc(Oc3ccccc3)cc1)nn2[C@H]1CCN(Cc2ccc(C3CCC(=O)NC3=O)c(F)c2)C[C@H]1F (stereo partly drawn) [GT-03513, 3-(4-(((3R,4S)-4-(4-amino-3-(4-phenoxyphenyl)-1H-pyrazolo[3,4-d]pyrimidin-1-yl)-3-fluoropiperidin-1-yl)methyl)-2-fluorophenyl)piperidine-2,6-dione] |  |  |  |  |  | 100 to 500 |  | 100 to 500 | 
6 | Nc1ncnc2c1c(-c1ccc(Oc3ccccc3)cc1)nn2C1CCN(Cc2ccc(C3CCC(=O)NC3=O)c(F)c2)CC1 (centres unmarked) [GT-03508, 3-(4-((4-(4-amino-3-(4-phenoxyphenyl)-1H-pyrazolo[3,4-d]pyrimidin-1-yl)piperidin-1-yl)methyl)-2-fluorophenyl)piperidine-2,6-dione] |  |  |  |  |  | 100 to 500 |  | 500 to 1000 | inhibition at 0.5 µM ([1]; Table II-2, CRBN binding screening, HTRF, at 0.5µM): 30 to 40%; inhibition at 2 µM ([1]; Table II-2, CRBN binding screening, HTRF, at 2 µM): 60 to 80%
7 | Nc1ncnc2c1c(-c1ccc(Oc3ccccc3)cc1)nn2C1CCN(Cc2ccc(C3CCC(=O)NC3=O)cc2)CC1 (centres unmarked) [GT-03507, 3-(4-((4-(4-amino-3-(4-phenoxyphenyl)-1H-pyrazolo[3,4-d]pyrimidin-1-yl)piperidin-1-yl)methyl)phenyl)piperidine-2,6-dione] |  |  |  |  |  | 100 to 500 |  | 500 to 1000 | inhibition at 0.5 µM [1]: 30 to 40%; inhibition at 2 µM [1]: 80 to 100%
8 | Nc1ncnc2c1c(-c1ccc(Oc3ccccc3)cc1)nn2[C@H]1CCN(Cc2ccc(C3CCC(=O)NC3=O)cc2)C[C@H]1F (stereo partly drawn) [GT-03542, 3-(4-(((3R,4S)-4-(4-amino-3-(4-phenoxyphenyl)-1H-pyrazolo[3,4-d]pyrimidin-1-yl)-3-fluoropiperidin-1-yl)methyl)phenyl)piperidine-2,6-dione] |  |  |  |  |  | 100 to 500 |  | 100 to 500 | inhibition at 0.5 µM [1]: 20 to 30%; inhibition at 2 µM [1]: 80 to 100%
9 | CC1(C)CCC(CN2CCN(c3ccc(C(=O)NS(=O)(=O)c4ccc(NCC5CCOCC5)c([N+](=O)[O-])c4)c(Oc4cnc5[nH]ccc5c4)c3)CC2)=C(c2ccc(Cl)cc2)C1 [ABT-199, Venetoclax, reference compound] | > 10000 | 500 to 1000 | 1000 to 5000 | 1000 to 5000 | > 10000 | 1000 to 5000 | > 10000 |  | 
10 | C=CC(=O)N1CCC[C@@H](n2nc(-c3ccc(Oc4ccccc4)cc3)c3c(N)ncnc32)C1 [ibrutinib, Ibrutinib, reference compound] |  |  |  |  |  |  |  |  | IC50 (H2228): > 10000 nM; IC50 (PC-9): 100 to 500 nM; IC50 (H1975): 500 to 1000 nM; IC50 (MM.1R): > 10000 nM; IC50 (SW620; SW-620, 96 h): > 10000 nM; IC50 (SU-DHL-6; SU-DHL-6, 72 h): 100 to 500 nM; IC50 (TMD8; TMD8, 72 h): > 10000 nM
